# Laboratory results taken from article PMC11788587, “Validating Low‐Dose Iohexol as a Marker for Glomerular Filtration Rate by In Vitro and In Vivo Studies” (Clinical and Translational Science, 2025).
# Where two headings read alike, the source gives them in different places.
# What was measured:
# hOATP1B1 = target: T1, hOATP1B1 (Homo sapiens, UniProt Q9Y6L6); test: Inhibition of hOATP1B1-mediated 3H-estrone sulfate uptake, stably transfected 293 cells; type: cell-based; settings: substrate 0.01 μM 3H-estrone sulfate, median (95% CI)
# T1 construct: expressed in transfected cells; host or cells: 293 cells (control: empty vector)
# T1 sequence (Q9Y6L6 1-691): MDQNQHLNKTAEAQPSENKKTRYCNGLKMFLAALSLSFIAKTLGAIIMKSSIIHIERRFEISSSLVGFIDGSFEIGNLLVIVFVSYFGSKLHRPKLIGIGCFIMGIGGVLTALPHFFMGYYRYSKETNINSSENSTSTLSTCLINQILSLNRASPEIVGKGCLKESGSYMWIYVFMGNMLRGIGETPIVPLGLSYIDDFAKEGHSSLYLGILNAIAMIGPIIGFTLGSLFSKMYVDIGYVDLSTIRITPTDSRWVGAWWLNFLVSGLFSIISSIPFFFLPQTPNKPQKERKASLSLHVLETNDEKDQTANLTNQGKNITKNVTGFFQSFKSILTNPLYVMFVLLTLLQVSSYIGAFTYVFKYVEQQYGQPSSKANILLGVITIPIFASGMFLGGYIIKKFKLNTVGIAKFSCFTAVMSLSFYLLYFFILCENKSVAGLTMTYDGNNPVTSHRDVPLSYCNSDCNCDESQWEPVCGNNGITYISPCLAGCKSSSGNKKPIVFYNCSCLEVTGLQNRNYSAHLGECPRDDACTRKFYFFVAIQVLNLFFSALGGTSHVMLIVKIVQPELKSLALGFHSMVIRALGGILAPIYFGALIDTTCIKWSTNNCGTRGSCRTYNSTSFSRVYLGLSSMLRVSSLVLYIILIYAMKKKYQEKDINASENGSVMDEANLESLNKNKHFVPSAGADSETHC
# Description: We characterized the inhibitory potential of iohexol on major drug transporters recommended by regulatory agencies, which were previously assessed in a clinical transporter phenotyping cocktail study. These transporters include hOAT1, hOAT3, hOCT1, hOCT2, hMATE1, hMATE2K, human organic anion transporter polypeptides (hOATP)1B1, hOATP1B3, and human multidrug resistance protein (hMDR)1. Additionally, we investigated whether iohexol is a substrate for any of the renal transporters among these, including hOAT1/3, hOCT1/2, and hMATE1/2K. Cell‐based uptake assays were used to assess the activities of hOAT1/3, hOCT1/2, hMATE1/2K, and hOATP1B1/1B3. Inside‐out membrane vesicle uptake assays were used to evaluate the activity of hMDR1.
# To determine the maximal inhibitory potential of iohexol, intracellular accumulation of a standard substrate was measured with and without the clinically relevant highest concentrations of iohexol. Control inhibitors were tested in each experiment.
# In all subsequent in vitro studies, control experiments were conducted to validate the results. […] Each condition, including cells or vesicles with the transporter and their respective controls, was analyzed in at least three replicates. […]
# Uptake assays were carried out with stably transfected 293 cells expressing hOATP1B1 or hOATP1B3, as well as cells containing an empty vector, using the method described by Hsin CH, et al..^1 For the inhibition assays, cells were incubated with the radiolabeled standard substrates specific to each transporter: 0.01 μM ^3H-estrone sulfate for hOATP1B1, and 0.02 μM ^3H-bromosulphophthalein (BSP) for hOATP1B3. […] The accumulation of radio-labelled probe substrates (^3H) in the cell lysate is determined using a Tri-Carb 2810 liquid scintillation counter (PerkinElmer, Waltham, MA, USA) as described previously.^1 Cellular protein amount was determined in parallel from 6 paired wells per cell line and experimental day, using the Bradford method.^2 The 1X lysis buffer (5X lysis buffer from Promega, diluted 1+4 [v/v] in ddH2O) was used as the lysis buffer. […]
# [1] = Clinical trial in healthy volunteers, adverse events; type: in vivo, human; settings: 12 healthy subjects, single i.v. doses 259 mg and 3235 mg
# Experimental: The trial had two separate objectives, that is, (i) to assess dose linearity of iohexol pharmacokinetics for a lower dose (reported here) and (ii) to improve the assessment of creatinine volume of distribution by oral administration of creatinine in beef meat (will be reported separately). Building on the PK findings from a 3235 mg iohexol injection, we determined that the current quantification method is sufficiently sensitive to measure iohexol plasma concentrations corresponding to doses over 10 times lower, up to at least 20 h postadministration. Therefore, a 259 mg iohexol dose was selected for this study. […] Each participant was randomly assigned to one of six sequences, receiving iohexol intravenously at different single doses on separate occasions: (1) 259 mg iohexol without beef ingestion (defined as “fasting,” “test”); (2) 3235 mg iohexol fasting (“reference”); and (3) 3235 mg iohexol with beef ingestion (not reported here). The washout interval between administrations was 7 to 14 days. Adverse events were surveyed until the completion of the study.
# Adverse events were monitored at multiple time points: within 1 hour before the administration of iohexol, and then at 10 minutes, 30 minutes, 1 hour, and 2 hours post-dose, as well as at the end of hospitalization for each period and during the end-of-study evaluation. Vital signs were recorded at the same time points as adverse events. Overall health was reassessed at the end of the study.
# [2] = test system: rat‐isolated perfused kidney; set-up: method as in ref 14 Masereeuw et al.; settings: mean ± standard deviation, ref 14 Masereeuw et al., cited from earlier work
# OCT2 = test system: OCT2; set-up: method as in ref 15 Yang et al.; settings: rat kidneys; ref 15 Yang et al.; cited from earlier work
smiles,measurement,setting,value
CC(=O)N(CC(O)CO)c1c(I)c(C(=O)NCC(O)CO)c(I)c(C(=O)NCC(O)CO)c1I (stereo not drawn) [iohexol],Inhibitory effect (% reduction of specific activity),hOATP1B1; 20 mM iohexol,no notable inhibitory effects
same,"inhibition at 1 min, 2 mM","hOATP1B1; human, stably transfected 293 cells expressing hOATP1B1, probe 3H-estrone sulfate, 2 mM iohexol, read-out: Inhibitory effect (% reduction of specific activity)",-6.9%
same,"inhibition at 1 min, 20 mM","hOATP1B1; human, stably transfected 293 cells expressing hOATP1B1, probe 3H-estrone sulfate, 20 mM iohexol, read-out: Inhibitory effect (% reduction of specific activity)",5.5%
same,Adverse events related to iohexol,[1],None of these were related to iohexol
same,Number of adverse events reported,[1],9
same,Subjects reporting adverse events,[1],7 of 12
same,Ratio of renal clearance to GFR,[2]; perfusate concentration 5 μg/mL,0.63 ± 0.06
same,Ratio of renal clearance to GFR,[2]; perfusate concentration 20 μg/mL,1.02 ± 0.06
same,Expression of OCT2,OCT2,downregulated
